Test results taken from patent US7365069B2, “Pyrimidone derivatives” (Bexel Pharmaceuticals Inc., priority 2002, dated 2008).

How the values were obtained:
COX-2 = target: T1, COX-2 (Homo sapiens, UniProt P35354); test: Human whole blood assay, COX-2 inhibition (PGE2 ELISA after LPS); assay type: cell-based; conditions: LPS 24 h
T1 construct: incubation of human blood with lipopolysaccharide (LPS), which induces COX-2 production in the blood; endogenous in cells; host or cells: fresh human whole blood from volunteers, treated with aspirin and then LPS
T1 sequence (P35354 18-604): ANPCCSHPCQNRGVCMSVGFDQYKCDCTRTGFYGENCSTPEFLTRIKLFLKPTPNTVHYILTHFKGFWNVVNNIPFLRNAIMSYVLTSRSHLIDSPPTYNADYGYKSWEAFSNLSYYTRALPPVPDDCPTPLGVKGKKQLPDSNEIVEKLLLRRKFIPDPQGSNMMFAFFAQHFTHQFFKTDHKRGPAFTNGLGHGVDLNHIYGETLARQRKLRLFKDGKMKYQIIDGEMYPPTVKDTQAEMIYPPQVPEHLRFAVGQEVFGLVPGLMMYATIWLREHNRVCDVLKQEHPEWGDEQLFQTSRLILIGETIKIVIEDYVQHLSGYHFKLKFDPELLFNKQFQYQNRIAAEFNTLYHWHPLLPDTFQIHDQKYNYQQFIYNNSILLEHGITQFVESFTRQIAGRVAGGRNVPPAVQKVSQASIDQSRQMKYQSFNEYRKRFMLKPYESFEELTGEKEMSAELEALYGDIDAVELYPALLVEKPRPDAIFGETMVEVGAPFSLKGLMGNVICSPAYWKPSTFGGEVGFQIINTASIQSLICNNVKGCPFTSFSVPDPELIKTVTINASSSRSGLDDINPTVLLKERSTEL
Description: In Vivo Evaluation of Cyclooxygenase-2 (COX-2) Inhibition Activity
The COX-2 inhibition activities of the compounds illustrated in the examples are determined by the following method.
Human whole blood provides a protein and cell rich milieu appropriate for the study of biochemical efficacy of anti-inflammatory compounds such as selective COX-2 inhibitors. […] This is correlating with the observation that COX-2 inhibitors have no effect on prostaglandin E2 (PGE2) production in normal blood. These inhibitors are active only after incubation of human blood with lipopolysaccharide (LPS), which induces COX-2 production in the blood.
Fresh blood is collected in tubes containing potassium EDTA by vein puncture from make volunteers. The subjects should have no apparent inflammatory conditions and not taken NSAIDs for at least 7 days prior to blood collection. Blood is treated with aspirin in vitro (10 μg/ml, at time zero) to inactivate COX-1, and then with LPS (10 μg/ml) along with test agents or vehicle. The blood is incubated for 24 h at 37° C., after which the tubes are centrifuged, the plasma is separated and stored at −80° C. (J. Pharmacol. Exp. Ther, 271, 1705, 1994; Proc. Natl. Acad. Sci. USA., 96, 7563, 1999). The plasma is assayed for PGE2 using Cayman ELISA kit as per the procedure outlined by the manufacturer (Cayman Chemicals, Ann Arbor, USA).

TNF-α = TNF-α production in LPS-stimulated human whole blood; assay type: cell-based; conditions: LPS 4 h
Description: Tumor Necrosis Factor Alpha (TNF-α)
This assay determines the effect of test compounds on the production of TNF-α in human whole blood. TNF-α assay is carried out as described by Armin hatzelmann and Christian Schudt (J Pharm Exp Ther 297, 261, 2001). Compounds are tested for their ability to inhibit the activity of TNF-α in human whole blood. The test compounds are pre-incubated for 15 minutes at 37° C. and then stimulated with Lipopolysaccharide (Salmonella abortus equi, 1 μg/ml) for 4 h at 37° C. in 5% CO2. The levels of TNF-α are estimated using Enzyme linked Immunosorbent assay performed in a 96 well format as per the procedure of the manufacturer (Cayman Chemical, Ann Arbor, USA).

IL-6 = IL-6 production in LPS-stimulated human whole blood; assay type: cell-based; conditions: LPS 4 h
Description: This assay determines the effect of test compounds on the production of IL-6 from human whole blood. Compounds are tested for their ability to downregulate the production of IL-6 in activated whole blood. The test compounds are pre-incubated for 15 minutes at 37° C. and then stimulated with Lipopolysaccharide (Salmonella abortus equi, 1 μg/ml) for 4 h at 37° C. in 5% CO2. The levels of Interleukin-6 are estimated using Enzyme linked Immunosorbent assay performed in a 96 well format as per the procedure of the manufacturer (Cayman Chemical, Ann Arbor, USA).

NCI-H460 = test: DTP human tumor cell line one-dose prescreen, NCI-H460; assay type: cell-based; conditions: 48 hours, Alamar Blue, test/control, read-out: Percentage growth Lung NCI-H460
Description: (§1) DTP Human Tumor Cell Line Screen
(§2) Methodology of the In Vitro Cancer Screen
(§3) The current assay utilizes a 384 well plate format and fluorescent staining technologies resulting in greater screening capacity for testing of synthetic samples.
(§4) The cell lines of the cancer-screening panel are grown in RPMI 1640 medium containing 5% fetal bovine serum and 2 mM L-glutamine. For a typical screening experiment, cells are inoculated into 96 well microtiter plates in 100 μL. After cell inoculation, the microtiter plates are incubated at 37° C., 5% CO2, 95% air and 100% relative humidity for 24 h prior to addition of experimental drugs. The cells are plated a densities of 5000 cells/well (MCF7), 1000 cells/well (NC1—H460), and 7500 cells/well (SF-268) to allow for varying doubling time of the cell lines. Each plate contains all three cell lines, a series of dilutions of standard agents, total kill wells and appropriate controls. Plates are incubated under standard conditions for 24 hours prior to addition of experimental compounds or extracts.
(§5) Addition of Experimental Agents (Pure Compounds)
(§6) Experimental compounds are solubilized in dimethyl sulfoxide (DMSO) at 400-times the desired maximum test concentration (maximum final DMSO concentration of 0.25%) and stored frozen. Compounds are then diluted with complete media with 0.1% gentamicin sulfate (5 μl of test sample in 100% DMSO is added to 565 μl of complete medium). 20 μl of this solution is then dispensed into test wells containing 50 μl of cell suspension to yield a test concentration of 1.00E-04M.
(§7) Two standard drugs, meaning that their activities against the cell lines are well documented, are tested against each cell line: NSC 19893 (5-FU) and NSC 123127 (Adriamycin).
(§8) After compound addition, plates are incubated at standard conditions for 48 hours, 10 μl/well Alamar Blue is added and the plates are incubated for an additional 4 hours. Fluorescence is measured using an excitation wavelength of 530 nm and an emission wavelength of 590 nm.
(§9) Calculation of Percent Test Cell Growth/Control (Untreated) Cell Growth (T/C)
(§10) Percent growth is calculated on a plate-by-plate basis for test wells relative to control wells. Percent Growth is expressed as the ratio of fluorescence of the test well to the average fluorescence of the control wells x 100.

MCF-7 = test: DTP human tumor cell line one-dose prescreen, MCF-7; assay type: cell-based; conditions: MCF7, 48 hours, Alamar Blue, test/control, read-out: Percentage growth Breast MCF-7
Description: as §1, §2, §3, §4, §5, §6, §7, §8, §9, §10

SF-268 = test: DTP human tumor cell line one-dose prescreen, SF-268; assay type: cell-based; conditions: 48 hours, Alamar Blue, test/control, read-out: Percentage growth CNS SF-268
Description: as §1, §2, §3, §4, §5, §6, §7, §8, §9, §10

Male Wistar rats = test: Rat carrageenan paw edema test; assay type: in vivo; conditions: 5 mg/kg body weight, oral, paw volume 3 hours after carrageenan, read-out: Rat Paw Edema model % inhibition
Description: Rat Carrageenan Paw Edema Test
The carrageenan paw edema test is performed as described by Winter et al (Proc. Soc. Exp. Biol. Med, 111, 544, 1962). Male Wistar rats are selected and the body weights are equivalent within each group. The rats are fasted for eighteen hours with free access to water. The rats are dosed orally with the test compound suspended in vehicle containing 0.5% methylcellulose. The control rats are administered the vehicle alone. After an hour, the rats are injected with 0.1 ml of 1% Carrageenan solution in 0.9% saline into the sub-plantar surface of the right hind paw. Paw volume is measured using water plethysmograph before and after 3 hours of carrageenan injection. The average of foot swelling in drug treated animals is compared with that of control animals. Anti-inflammatory activity is expressed as the percentage inhibition of edema compared with control group [Arzneim-Forsch/Drug Res., 43(I), 1, 44-50,1993; Ottemess and Bliven, Laboratory Models for Testing NSAIDs, In Non-Steroidal Anti-Inflammatory Drugs, (J. Lombardino, ed. 1985)]. In order to evaluate their role on the ulcer formation, the animals are sacrificed and the stomach is taken out and flushed with 1% formalin. The stomach is opened along the greater curvature. The haemorrhagic puncta and sulci are identified microscopically and images are captured. The stomach lesions are calculated.

| SMILES | melting point [°C] | activity at 100 µM (NCI-H460) [%] | activity at 100 µM (MCF-7) [%] | inhibition at 0.25 µM (IL-6) [%] | inhibition at 0.25 µM (COX-2) [%] | further results |
| --- | --- | --- | --- | --- | --- | --- |
| CCOC(=O)c1c(SC)nc(-c2ccc(SC)cc2)n(-c2ccc(F)cc2)c1=O [Example 42, ethyl 1-(4-fluorophenyl)-4-(methylthio)-2-[4-(methylthio)phenyl]-6-oxo-1,6-dihydropyrimidine-5-carboxylate] | 151 to 155 |  |  |  |  | inhibition at 0.1 µM (COX-2; 0.1 μM): 37.6%; inhibition at 0.1 µM (TNF-α; 0.1 μM): 49.6%; inhibition at 0.1 µM (IL-6; 0.1 μM): 59.7% |
| COc1ccc(-n2c(-c3ccc(SC)cc3)nc(SC)c(C#N)c2=O)cc1 [Example 16, 5-cyano-1-(4-methoxyphenyl)-4-(methylthio)-2-[4-(methylthio)phenyl]-6-oxo-1,6-dihydropyrimidine] | 214 to 216 | 95 | 90 |  |  | inhibition at 10 µM (TNF-α): 59.8% |
| CCOC(=O)c1c(SC)nc(-c2ccc(F)cc2)n(-c2ccc(SC)cc2)c1=O [Example 43, ethyl 2-(4-fluorophenyl)-4-(methylthio)-1-[4-(methylthio)phenyl]-6-oxo-1,6-dihydropyrimidine-5-carboxylate] | 166 to 169 | 79 | 68 | 10.4 |  | inhibition at 1 µM (COX-2; 1 μM): 27.5%; inhibition at 1 µM (TNF-α): 36.4% |
| CSc1nc(-c2ccccn2)n(-c2ccc(F)cc2)c(=O)c1C#N [Example 29, 5-cyano-1-(4-fluorophenyl)-4-(methylthio)-6-oxo-2-pyridin-2-yl-1,6-dihydropyrimidine] | 221 to 227 | 23 | 80 |  |  | activity at 100 µM (SF-268): 92% |
| CSc1nc(-c2ccc(S(C)(=O)=O)cc2)n(-c2ccc(C)c(C)c2)c(=O)c1C#N [Example 12, 5-cyano-1-(3,4-dimethylphenyl)-2-[4-(methylsulfonyl)phenyl]-4-(methylthio)-6-oxo-1,6-dihydropyrimidine] | 245 to 247 |  |  | 28.7 | 36.5 | inhibition in vivo at 5 mg/kg (Male Wistar rats): 41.2%; inhibition at 0.25 µM (TNF-α): 27.2% |
| CSc1ccc(-n2c(-c3ccc(C)cc3)nc(SC)c(C#N)c2=O)cc1 [Example 20, 5-cyano-2-(4-methylphenyl)-4-(methylthio)-1-[4-(methylthio)phenyl]-6-oxo-1,6-dihydropyrimidine] | 230 to 233 |  |  |  | 7.67 | inhibition at 1 µM (TNF-α): 61.4% |
| CSc1ccc(-n2c(-c3ccncc3)nc(SC)c(C#N)c2=O)cc1 [Example 28, 5-cyano-4-(methylthio)-1-[4-(methylthio)phenyl]-6-oxo-2-pyridin-4-yl-1,6-dihydropyrimidine] | 227 to 229 | 20 | 48 |  |  | activity at 100 µM (SF-268): 63% |
| CSc1ccc(-n2c(-c3cccnc3)nc(SC)c(C#N)c2=O)cc1 [Example 27, 5-cyano-4-(methylthio)-1-[4-(methylthio)phenyl]-6-oxo-2-pyridin-3-yl-1,6-dihydropyrimidine] | 212 to 215 | 14 | 23 |  |  | activity at 100 µM (SF-268): 51% |
| CNc1nc(-c2ccc(SC)cc2)n(-c2ccc(C)cc2)c(=O)c1C#N [Example 54, 5-cyano-4-(methylamino)-1-(4-methylphenyl)-2-[4-(methylthio)phenyl]-6-oxo-1,6-dihydropyrimidine] | 268 to 271 |  |  |  | 72.1 | inhibition at 1 µM (TNF-α): 15.6%; inhibition at 1 µM (IL-6; 1 μM): 15.5% |
| CSc1nc(-c2ccccc2)n(-c2ccc(F)cc2)c(=O)c1C#N [Example 17, 5-cyano-1-(4-fluorophenyl)-4-(methylthio)-2-phenyl-6-oxo-1,6-dihydropyrimidine] | 204 to 205 |  |  | 16.2 | 16.2 | inhibition at 10 µM (TNF-α): 47.4% |
| CSc1nc(-c2ccc(S(C)(=O)=O)cc2)n(-c2ccc(C(C)C)cc2)c(=O)c1C#N [Example 11, 5-cyano-1-(4-isopropylphenyl)-2-[4-(methylsulfonyl)phenyl]-4-(methylthio)-6-oxo-1,6-dihydropyrimidine] | 211 to 212 |  |  | 70.8 | 31.1 | inhibition in vivo at 5 mg/kg (Male Wistar rats): 63.8%; inhibition at 0.25 µM (TNF-α): 63.8% |
